Values joined by “and” are separate entries in the source; they are usually repeats but may differ in a detail not shown here. Identical values can stand only once. Toxic doses and inconclusive results are not listed.
Tested on: BDF1 mice, P388 leukemia ip, median survival T/C
Experiment: NCI In Vivo Anticancer Drug Screen. Data for tumor model P388 Leukemia (intraperitoneal) in B6D2F1 (BDF1) mice
Conditions: endpoint: median survival time, higher = longer survival
Method in brief: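 Read-out is survival of treated animals expressed relative to the vehicle group, as a T/C ratio.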

SMILES: O=c1[nH]cc(F)c(=O)[nH]1
- T/C (dose: 5.0 mg/kg/injection, schedule: Q03HX024 (ip), vehicle: saline): 210 % of control
- T/C (dose: 7.5 mg/kg/injection, schedule: Q01DX009 (ip), vehicle: saline): 166 % of control and 179 % of control and 184 % of control
- T/C (dose: 7.5 mg/kg/injection, schedule: Q03HX024 (ip), vehicle: saline): 219 % of control
- T/C (dose: 8.0 mg/kg/injection, schedule: Q01DX005 (ip), vehicle: saline): 163 % of control
- T/C (dose: 9.4 mg/kg/injection, schedule: Q04DX003 (ip), vehicle: saline): 120 % of control
- T/C (dose: 10.0 mg/kg/injection, schedule: Q01DX010 (ip), vehicle: acetone): 95 % of control
- T/C (dose: 10.0 mg/kg/injection, schedule: Q03HX024 (ip), vehicle: saline): 233 % of control
- T/C (dose: 11.0 mg/kg/injection, schedule: Q01DX009 (ip), vehicle: saline): 211 % of control
- T/C (dose: 13.0 mg/kg/injection, schedule: Q01DX009 (ip), vehicle: saline): 122 % of control
- T/C (dose: 13.2 mg/kg/injection, schedule: Q01DX009 (ip), vehicle: saline): 250 % of control
- T/C (dose: 13.3 mg/kg/injection, schedule: Q01DX009 (ip), vehicle: Klucel (hydroxypropylcellulose) (HPC)): 150 % of control
- T/C (dose: 13.3 mg/kg/injection, schedule: Q01DX009 (ip), vehicle: saline sonified): 181 % of control
- T/C (dose: 14.0 mg/kg/injection, schedule: Q01DX009 (ip), vehicle: saline): 169 % of control
- T/C (dose: 15.0 mg/kg/injection, schedule: Q03HX024 (ip), vehicle: saline): 254 % of control
- T/C (dose: 16.0 mg/kg/injection, schedule: Q01DX005 (ip), vehicle: saline): 170 % of control
- T/C (dose: 16.0 mg/kg/injection, schedule: Q01DX009 (ip), vehicle: saline): 228 % of control and 169 % of control
- T/C (dose: 20.0 mg/kg/injection, schedule: Q01DX005 (ip), vehicle: water): 205 % of control
- T/C (dose: 20.0 mg/kg/injection, schedule: Q01DX009 (ip), vehicle: Klucel (hydroxypropylcellulose) (HPC)): 100 % of control
- T/C (dose: 20.0 mg/kg/injection, schedule: Q01DX009 (ip), vehicle: saline sonified): 113 % of control
- T/C (dose: 20.0 mg/kg/injection, schedule: Q01DX010 (ip), vehicle: acetone): 213 % of control
- T/C (dose: 20.0 mg/kg/injection, schedule: Q04DX003 (ip), vehicle: saline): 166 % of control
- T/C (dose: 22.5 mg/kg/injection, schedule: Q03HX024 (ip), vehicle: saline): 112 % of control
- T/C (dose: 23.0 mg/kg/injection, schedule: Q01DX009 (ip), vehicle: saline): 205 % of control
- T/C (dose: 24.0 mg/kg/injection, schedule: Q01DX009 (ip), vehicle: saline): 243 % of control
- T/C (dose: 25.0 mg/kg/injection, schedule: Q04DX003 (ip), vehicle: water): 150 % of control
- T/C (dose: 26.0 mg/kg/injection, schedule: Q04DX003 (ip), vehicle: saline): 96 % of control and 111 % of control
- T/C (dose: 27.0 mg/kg/injection, schedule: Q01DX009 (ip), vehicle: Klucel (hydroxypropylcellulose) (HPC)): 166 % of control
- T/C (dose: 27.0 mg/kg/injection, schedule: Q01DX009 (ip), vehicle: saline sonified): 181 % of control
- T/C (dose: 27.0 mg/kg/injection, schedule: Q04DX003 (ip), vehicle: saline): 154 % of control
- T/C (dose: 32.0 mg/kg/injection, schedule: Q01DX005 (ip), vehicle: saline): 185 % of control
- T/C (dose: 36.0 mg/kg/injection, schedule: Q04DX003 (ip), vehicle: saline): 153 % of control and 165 % of control
- T/C (dose: 39.0 mg/kg/injection, schedule: Q01DX009 (ip), vehicle: saline): 87 % of control
- T/C (dose: 40.0 mg/kg/injection, schedule: Q01DX005 (ip), vehicle: water): 185 % of control
- T/C (dose: 40.0 mg/kg/injection, schedule: Q01DX010 (ip), vehicle: acetone): 100 % of control
- T/C (dose: 50.0 mg/kg/injection, schedule: Q01DX001 (ip), vehicle: saline): 153 % of control
- T/C (dose: 50.0 mg/kg/injection, schedule: Q04DX003 (ip), vehicle: saline): 152 % of control and 158 % of control
- T/C (dose: 50.0 mg/kg/injection, schedule: Q04DX003 (ip), vehicle: water): 170 % of control
- T/C (dose: 65.0 mg/kg/injection, schedule: Q04DX003 (ip), vehicle: saline): 98 % of control
- T/C (dose: 66.0 mg/kg/injection, schedule: Q01DX001 (ip), vehicle: saline): 100 % of control and 111 % of control
- T/C (dose: 75.0 mg/kg/injection, schedule: Q01DX001 (ip), vehicle: water): 150 % of control
- T/C (dose: 75.0 mg/kg/injection, schedule: Q04DX003 (ip), vehicle: saline): 163 % of control and 196 % of control
- T/C (dose: 80.0 mg/kg/injection, schedule: Q01DX010 (ip), vehicle: saline): 90 % of control
- T/C (dose: 88.0 mg/kg/injection, schedule: Q01DX001 (ip), vehicle: saline): 99 % of control and 108 % of control
- T/C (dose: 100.0 mg/kg/injection, schedule: Q04DX003 (ip), vehicle: water): 190 % of control
- T/C (dose: 108.0 mg/kg/injection, schedule: Q04DX003 (ip), vehicle: saline): 98 % of control
- T/C (dose: 160.0 mg/kg/injection, schedule: Q01DX001 (ip), vehicle: saline): 104 % of control and 108 % of control and 117 % of control
- T/C (dose: 175.0 mg/kg/injection, schedule: Q01DX001 (ip), vehicle: saline): 150 % of control
- T/C (dose: 180.0 mg/kg/injection, schedule: Q04DX003 (ip), vehicle: saline): 100 % of control
- T/C (dose: 200.0 mg/kg/injection, schedule: Q04DX003 (ip), vehicle: water): 100 % of control
- T/C (dose: 225.0 mg/kg/injection, schedule: Q01DX001 (ip), vehicle: saline): 117 % of control
- T/C (dose: 240.0 mg/kg/injection, schedule: Q01DX001 (ip), vehicle: saline): 105 % of control and 106 % of control
- T/C (dose: 250.0 mg/kg/injection, schedule: Q01DX001 (ip), vehicle: saline): 90 % of control
- T/C (dose: 360.0 mg/kg/injection, schedule: Q01DX001 (ip), vehicle: saline): 109 % of control and 111 % of control
- T/C (dose: 400.0 mg/kg/injection, schedule: Q01DX001 (ip), vehicle: saline): 100 % of control
